Measurements taken from patent US4451457A, “Cyclodextrin and method for promoting the proliferation of intestinal bifidobacteria” (Kureha Kagaku Kogyo Kabushiki Kaisha, priority 1981, dated 1984).

Experiments:
Mouse = assay: Acute toxicity, LD50 in mice; format: in vivo; details: female mouse
Description: (§1) Each cyclodextrin (α-, β- and γ-) was administered via the following routes to rats and mice and LD50 was measured.

[1] = Acute toxicity, LD50 in mice; format: in vivo, Mouse; details: in vivo, male mouse
Description: as §1

rat = assay: Acute toxicity, LD50 in rats; format: in vivo; details: female rat
Description: as §1

[2] = Acute toxicity, LD50 in rats; format: in vivo, rat; details: in vivo, male rat
Description: as §1

Bacteroides sp. = assay: Viable count of Bacteroides sp. in feces of mice; format: in vivo, female C3H/He mice; details: for Rate of proliferation (B/A), Bacteroides sp. / Viable count 7 days after (B) administration, Bacteroides sp.: 2.0 g/kg/day; for Rate of proliferation (B/A), Bacteroides sp.: 7 days after / before; for Viable count 7 days after (B) administration, Bacteroides sp. / Viable count before (A) administration, Bacteroides sp.: average of five mice
Description: (§2) Each solution or suspension was administered to female C3H/He mice at 8th week after birth, one group consisting of 5 animals and the number of groups being four, the dosage being 2.0 g of cyclodextrin/kg of body weight/day, continuously for 2 weeks.
(§3) Before and 7 days after the administration, feces of each mouse was collected, and after diluting the collected feces with 100 times by weight of an anaerobic phosphate buffer and grinding the diluted feces, each 0.1 ml of the ground feces was inoculated on each culture medium (refer to Table 3) for the specified bacterial species, and the thus inoculated culture media were incubated at 37° C. for one to five days under the aerobic conditions or anaerobic conditions (according to the anaerobic grove box method).
NBGT agar same as above
(§4) After the incubation was over, the number of bifidobacteria, Escherichia coli, Lactobacilli and Bacteroides sp. in the culture medium was counted. The results are shown in Tables 4 to 7, the counts being the average of five mice.

Lactobacilli = assay: Viable count of Lactobacilli in feces of mice; format: in vivo, female C3H/He mice; details: for Rate of proliferation (B/A), Lactobacilli / Viable count 7 days after (B) administration, Lactobacilli: 2.0 g/kg/day; for Rate of proliferation (B/A), Lactobacilli: 7 days after / before; for Viable count 7 days after (B) administration, Lactobacilli / Viable count before (A) administration, Lactobacilli: average of five mice
Description: as §2, §3, §4

bifidobacteria = assay: Intestinal proliferation of bifidobacteria in mice, viable count in feces; format: in vivo, female C3H/He mice; details: for Rate of proliferation (B/A), bifidobacteria / Viable count 7 days after (B) administration, bifidobacteria: 2.0 g/kg/day; for Rate of proliferation (B/A), bifidobacteria: 7 days after / before; for Viable count 7 days after (B) administration, bifidobacteria / Viable count before (A) administration, bifidobacteria: average of five mice
Description: The activity of cyclodextrin in promoting the intestinal proliferation of bifidobacteria was recognized by the results of test as described below. Namely, cyclodextrin was administered orally to test animals such as mouse at the dose of 2 g/kg of body weight per day for 2 weeks, and the number of viable intestinal bacteria such as bifidobacteria, Escherichia coli, Lactobacilli and Bacteroides sp. in the feces of the test animal seven days after the administration were counted by the conventional method. […] Namely, when the bifidobacteria-proliferating agent of the invention is administered to the living body, it is possible to proliferate only bifidobacteria in the intestine of the living body without disturbing the intraintestinal bacterial flora.
as §2, §3
BS agar anaerobic, 37° C., 5 days
as §4

Escherichia coli = assay: Viable count of Escherichia coli in feces of mice; format: in vivo, female C3H/He mice; details: for Rate of proliferation (B/A), Escherichia coli / Viable count 7 days after (B) administration, Escherichia coli: 2.0 g/kg/day; for Rate of proliferation (B/A), Escherichia coli: 7 days after / before; for Viable count 7 days after (B) administration, Escherichia coli / Viable count before (A) administration, Escherichia coli: average of five mice
Description: as §2, §3
DHL agar aerobic, 37° C., one day
as §4

| Molecule | LD50 (Mouse; intraperitoneal) | LD50 (Mouse; oral) | LD50 (Mouse; subcutaneous) | LD50 ([1]; ip, intraperitoneal) | LD50 ([1]; sc, subcutaneous) | LD50 ([1]; oral) | LD50 (rat; intraperitoneal) | LD50 (rat; oral) | LD50 (rat; subcutaneous) | LD50 ([2]; ip, intraperitoneal) | LD50 ([2]; sc, subcutaneous) | LD50 ([2]; oral) | Rate of proliferation (B/A), Bacteroides sp. (Bacteroides sp.) | Viable count 7 days after (B) administration, Bacteroides sp. (Bacteroides sp.) | Viable count before (A) administration, Bacteroides sp. (Bacteroides sp.) | Rate of proliferation (B/A), Lactobacilli (Lactobacilli) | Viable count 7 days after (B) administration, Lactobacilli (Lactobacilli) | Viable count before (A) administration, Lactobacilli (Lactobacilli) | Rate of proliferation (B/A), bifidobacteria (bifidobacteria) | Viable count 7 days after (B) administration, bifidobacteria (bifidobacteria) | further results |
| --- | --- | --- | --- | --- | --- | --- | --- | --- | --- | --- | --- | --- | --- | --- | --- | --- | --- | --- | --- | --- | --- |
| OC[C@H]1O[C@@H]2O[C@H]3[C@H](O)[C@@H](O)[C@@H](O[C@H]4[C@H](O)[C@@H](O)[C@@H](O[C@H]5[C@H](O)[C@@H](O)[C@@H](O[C@H]6[C@H](O)[C@@H](O)[C@@H](O[C@H]7[C@H](O)[C@@H](O)[C@@H](O[C@H]1[C@H](O)[C@H]2O)O[C@@H]7CO)O[C@@H]6CO)O[C@@H]5CO)O[C@@H]4CO)O[C@@H]3CO [α-cyclodextrin] | > 900 mg/kg | > 12500 mg/kg | > 900 mg/kg | > 900 mg/kg | > 900 mg/kg | > 12500 mg/kg | > 1200 mg/kg | > 12000 mg/kg | > 1500 mg/kg | > 1200 mg/kg | > 1500 mg/kg | > 12000 mg/kg | – | – | – | – | – | – | – | – | – |
| OC[C@H]1O[C@@H]2O[C@H]3[C@H](O)[C@@H](O)[C@@H](O[C@H]4[C@H](O)[C@@H](O)[C@@H](O[C@H]5[C@H](O)[C@@H](O)[C@@H](O[C@H]6[C@H](O)[C@@H](O)[C@@H](O[C@H]7[C@H](O)[C@@H](O)[C@@H](O[C@H]8[C@H](O)[C@@H](O)[C@@H](O[C@H]1[C@H](O)[C@H]2O)O[C@@H]8CO)O[C@@H]7CO)O[C@@H]6CO)O[C@@H]5CO)O[C@@H]4CO)O[C@@H]3CO [β-cyclodextrin] | > 900 mg/kg | > 12500 mg/kg | > 900 mg/kg | > 900 mg/kg | > 900 mg/kg | > 12500 mg/kg | > 1200 mg/kg | > 12000 mg/kg | > 1500 mg/kg | > 1200 mg/kg | > 1500 mg/kg | > 12000 mg/kg | 1.06 | 3.7 × 10^8 per g of the feces | 3.5 × 10^8 per g of the feces | 1.47 | 2.2 × 10^9 per g of the feces | 1.5 × 10^9 per g of the feces | 1385 | 1.8 × 10^8 per g of the feces | Viable count before (A) administration, bifidobacteria (bifidobacteria): 1.3 × 10^5 per g of the feces; Rate of proliferation (B/A), Escherichia coli (Escherichia coli): 1.45; Viable count 7 days after (B) administration, Escherichia coli (Escherichia coli): 5.8 × 10^6 per g of the feces; Viable count before (A) administration, Escherichia coli (Escherichia coli): 4.0 × 10^6 per g of the feces |
| OC[C@H]1O[C@@H]2O[C@H]3[C@H](O)[C@@H](O)[C@@H](O[C@H]4[C@H](O)[C@@H](O)[C@@H](O[C@H]5[C@H](O)[C@@H](O)[C@@H](O[C@H]6[C@H](O)[C@@H](O)[C@@H](O[C@H]7[C@H](O)[C@@H](O)[C@@H](O[C@H]8[C@H](O)[C@@H](O)[C@@H](O[C@H]9[C@H](O)[C@@H](O)[C@@H](O[C@H]1[C@H](O)[C@H]2O)O[C@@H]9CO)O[C@@H]8CO)O[C@@H]7CO)O[C@@H]6CO)O[C@@H]5CO)O[C@@H]4CO)O[C@@H]3CO [γ-cyclodextrin] | > 900 mg/kg | > 12500 mg/kg | > 900 mg/kg | > 900 mg/kg | > 900 mg/kg | > 12500 mg/kg | > 1200 mg/kg | > 12000 mg/kg | > 1500 mg/kg | > 1200 mg/kg | > 1500 mg/kg | > 12000 mg/kg | 3.00 | 3.0 × 10^8 per g of the feces | 1.0 × 10^8 per g of the feces | 0.78 | 7.0 × 10^8 per g of the feces | 9.0 × 10^8 per g of the feces | 90 | 1.8 × 10^6 per g of the feces | Viable count before (A) administration, bifidobacteria (bifidobacteria): 2.0 × 10^4 per g of the feces; Rate of proliferation (B/A), Escherichia coli (Escherichia coli): 0.93; Viable count 7 days after (B) administration, Escherichia coli (Escherichia coli): 7.0 × 10^6 per g of the feces; Viable count before (A) administration, Escherichia coli (Escherichia coli): 7.5 × 10^6 per g of the feces |
| dextrin [reference compound] | – | – | – | – | – | – | – | – | – | – | – | – | 2.50 | 8.0 × 10^8 per g of the feces | 3.2 × 10^8 per g of the feces | 1.20 | 6.0 × 10^8 per g of the feces | 5.0 × 10^8 per g of the feces | 0.70 | 1.6 × 10^5 per g of the feces | Viable count before (A) administration, bifidobacteria (bifidobacteria): 2.3 × 10^5 per g of the feces; activity to the proliferation of bifidobacteria, in words (bifidobacteria; mouse, oral, Table 7): did not exhibit such an activity; Rate of proliferation (B/A), Escherichia coli (Escherichia coli): 0.80; Viable count 7 days after (B) administration, Escherichia coli (Escherichia coli): 7.2 × 10^6 per g of the feces; Viable count before (A) administration, Escherichia coli (Escherichia coli): 9.0 × 10^6 per g of the feces |
